Source: patent publication US11938228B2, “Particle-based multi-layer therapeutic delivery device and method” (Privo Technologies, Inc., priority 2017, dated 2024)

Assays:
[1] = release profile of encapsulated agent from chitosan particles (atomic absorption spectrometry); format: physicochemical; conditions: over 60 hours; particles with average diameter 500 to 2000 nm; detection by AAS
Source text: FIG. 1 is a graph showing the release profile of one embodiment of particles having an average diameter in the range of 500 to 2000 nm which may be included within a multi-layered device according to embodiments of the present invention. […] Cisplatin was used for this experiment due to its use in the treatment of oral cancer and its ease of detection via atomic absorption spectrometry (AAS).
FIG. 1 is a graph showing the release profile of example particles having an average diameter in the range of 500 to 2000 nm. […] Cisplatin was used for this experiment due to its use in the treatment of oral cancer and its ease of detection via atomic absorption spectrometry (AAS).

[2] = permeation of fluorescent dye from two-layer device into buccal tissue (fluorescence microscopy); format: in vitro ADME; conditions: lamb buccal tissue, multi-layer device
Source text: FIG. 2 is an image of an example multi-layered device according to example embodiments of the present invention. The device features two layers: one top layer including fluorescein isothiocyanate (FITC), a fluorescent dye which fluoresces green when examined under a fluorescent microscope, and one bottom layer including cyanine 5 (Cy5), a fluorescent dye which fluoresces red when examined under a fluorescent microscope.
FIGS. 5A-5C show three images taken from lamb buccal tissue at different time points.
In another representative embodiment, a multi-layered device may be used for the delivery of multiple agents over a prolonged period of time (FIG. 4, FIG. 5). If the example of mucositis is again used, multiple layers may include a pain mitigator in free form, a pain mitigator encapsulated within particles and an agent for the treatment of mucositis encapsulated within particles. The initial freeform layer is able to provide immediate pain relief, and the subsequent particle-encapsulated layers are capable of delivering particles beneath the tissue, where they further release their agents over a period of days, providing longer-term pain relief and treatment. FIG. 4 and FIG. 5 illustrate this effect. Fluorescence was used in order to provide detection. […]

Molecule | cisplatin released from particles [1] [%] | permeation into tissue ([2]; after 30 minutes) | permeation into tissue ([2]; after 1 hour)
N.N.[Cl][Pt][Cl] [cisplatin] | 45 | – | –
fluorescein isothiocyanate [FITC] | – | beginning to permeate the tissue | permeating deeper into the tissue
